In assay [1] the test system is C33A cervical carcinoma cells. The experiment in a line: Cancer cell viability by cellular ATP levels (ViaLight), C33A. The class given is cell-based. The conditions noted are these: Homo sapiens, C-33-A, 72 h, 3 days of incubation, ATP levels relative to untreated control. As for the experimental part:
(§1) Selected cell lines included C33A cervical carcinoma cells and H1299 human non-small cell lung cancer-cells (American Type Culture Collection, Manassas, Va. USA), which were cultured in the media recommended by the American Type Culture Collection. The cells lines were plated in 96-well microtiter plates (PerkinElmer Life Sciences Inc, Boston, Mass., USA) at a confluency that allowed them to reach confluence after 4 days of growth. One day after plating, the cells were treated with various concentrations of Compounds. Stock solutions of the Compounds were prepared in dimethyl sulfoxide (Sigma-Aldrich Inc., St. Louis, Mo., USA), diluted in the recommended media and then added to the cells. The total dimethyl sulfoxide on the cells was 0.1%. After 3 days of incubation the ATP levels in the cells were quantified using a luminescent ViaLight detection system (Bio-Whittaker, MD, USA). The results were plotted relative to untreated control cells, which were set at a value of 100. The IC50s were determined using a best-fit sigmoidal dose response curve with variable slope.

Assay [2] has as its system H1299 human non-small cell lung cancer-cells. The experiment in a line: Cancer cell viability by cellular ATP levels (ViaLight), H1299. Type of assay: cell-based. The conditions noted are these: NCI-H1299, 72 h, 3 days of incubation, ATP levels relative to untreated control. Here is the method: as §1

pIC50: −log10 of the molar value.

As a reminder, the pIC50 is the IC50 on a negative log10 scale, so that one unit is a factor of ten. The low end stands for a large IC50, the high end for a small IC50.

In the case of `COC1=CC(c2cnc(OC)nc2OC)=NC1=Cc1[nH]c(C)cc1C` [Compound 32, 2,4-dimethoxy-5-(4-methoxy-5-((3,5-dimethyl-1H-pyrrol-2-yl)methylene)-5H-pyrrol-2-yl)pyrimidine], the figures for the pIC50 in assay [1] and in assay [2] were 5.20 and 5.16, respectively.

For the compound `COC1=CC(c2cccnc2Cl)=NC1=Cc1[nH]c(C)cc1C` [Compound 33, 2-chloro-3-(4-methoxy-5-((3,5-dimethyl-1H-pyrrol-2-yl)methylene)-5H-pyrrol-2-yl)pyridine], the negative-log IC50 (pIC50) in assay [1] is 5.06; in assay [2] it was 4.80.

Regarding `COC1=CC(c2ccc3c(c2)OCCN3C)=NC1=Cc1[nH]c(C)cc1C` [Compound 34, 3,4-dihydro-7-(4-methoxy-5-((3,5-dimethyl-1H-pyrrol-2-yl)methylene)-5H-pyrrol-2-yl)-4-methyl-2H-benzo[b][1,4]oxazine], the pIC50 in assay [1] and in assay [2] was 5.91 in each case.

On to `COC1=CC(c2cncnc2)=NC1=Cc1[nH]c(C)cc1C` [Compound 35, 5-(4-methoxy-5-((3,5-dimethyl-1H-pyrrol-2-yl)methylene)-5H-pyrrol-2-yl)pyrimidine], for which the negative logarithm of the IC50 (pIC50) in assay [1] was 5.05; in assay [2], 4.80.

With `COC1=CC(c2ccc(SC(C)C)cc2)=NC1=Cc1[nH]c(C)cc1C` [Compound 36, 2-((5-(4-(isopropylthio)phenyl)-3-methoxy-2H-pyrrol-2-ylidene)methyl)-3,5-dimethyl-1H-pyrrole], the negative logarithm of the IC50 (pIC50) in assay [1] is 5.93; in assay [2], 5.85.

Take `COC1=CC(c2cnn(Cc3ccccc3)c2)=NC1=Cc1[nH]c(C)cc1C` [Compound 37, 1-benzyl-4-(4-methoxy-5-((3,5-dimethyl-1H-pyrrol-2-yl)methylene)-5H-pyrrol-2-yl)-1H-pyrazole]: the negative logarithm of the IC50 (pIC50) in assay [1] is 6.74; in assay [2], 5.78.

Turning to `COC1=CC(c2ccc(OC)c(O)c2)=NC1=Cc1[nH]c(C)cc1C` [Compound 38, 2-methoxy-5-(4-methoxy-5-((3,5-dimethyl-1H-pyrrol-2-yl)methylene)-5H-pyrrol-2-yl)phenol], the results for the pIC50 in assay [1] and in assay [2] were 5.70 and 5.17, respectively.

For `COC1=CC(c2ccc(F)nc2)=NC1=Cc1[nH]c(C)cc1C` [Compound 39, 2-fluoro-5-(4-methoxy-5-((3,5-dimethyl-1H-pyrrol-2-yl)methylene)-5H-pyrrol-2-yl)pyridine], the negative logarithm of the IC50 (pIC50) is 5.12 in assay [1] and 4.70 in assay [2].

Regarding `COC1=CC(c2cccnc2F)=NC1=Cc1[nH]c(C)cc1C` [Compound 40, 2-fluoro-3-(4-methoxy-5-((3,5-dimethyl-1H-pyrrol-2-yl)methylene)-5H-pyrrol-2-yl)pyridine], the pIC50 in assay [1] was 5.07; in assay [2], 4.70.

In the case of `COC1=CC(c2ccc(COC(C)(C)C)cc2)=NC1=Cc1[nH]c(C)cc1C` [Compound 41, 2-((5-(4-(tert-butoxymethyl)phenyl)-3-methoxy-2H-pyrrol-2-ylidene)methyl)-3,5-dimethyl-1H-pyrrole], the pIC50 was 5.38 in assay [1] and 5.00 in assay [2].

Regarding `COC1=CC(c2ccc(OC)nc2)=NC1=Cc1[nH]c(C)cc1C` [Compound 42, 2-methoxy-5-(4-methoxy-5-((3,5-dimethyl-1H-pyrrol-2-yl)methylene)-5H-pyrrol-2-yl)pyridine], the pIC50 in assay [1] is 5.10; in assay [2], 4.86.

As to `COc1ccc(C2=NC(=Cc3[nH]c(C)cc3C)C(OCc3ccccc3)=C2)cc1OC` [Compound 43, 3-(benzyloxy)-5-(3,4-dimethoxyphenyl)-2-((3,5-dimethyl-1H-pyrrol-2-yl)methylene)-2H-pyrrole], the values for the pIC50 in assay [1] and in assay [2] were 6.88 and 6.15, respectively.

Consider `Cc1cc(C)c(C=C2N=C(c3ccc4c(c3)OCO4)C=C2OCc2ccccc2)[nH]1` [Compound 44, 5-(benzo[d][1,3]dioxol-5-yl)-3-(benzyloxy)-2-((3,5-dimethyl-1H-pyrrol-2-yl)methylene)-2H-pyrrole], for which the figures for the negative logarithm of the IC50 (pIC50) in assay [1] and in assay [2] were 5.66 and 5.08, respectively.
